Some test systems named below: A549 NSCLC; U251 CNS; K-562 leukemia; SF-268 CNS; HL-60(TB) leukemia; OVCAR-5 ovarian; SF-539 CNS; SK-OV-3 ovarian; OVCAR-3 ovarian; SK-MEL-5 melanoma.
Common to all, as to assay: inhibition of tumour cell growth, NCI panel, 48 h

Several values for one entry are separate records, joined by “and”; a condition that tells them apart may be missing. Equal values may be shown once.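 Five concentrations, 48 hours, 96-well plates. GI50 = concentration required for 50% inhibition of growth. The concentration for full growth arrest is given as TGI.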

Experimental findings from PubChem BioAssay (NCI) are described below.

`CCC/C=C\C=C\C1(NS(=O)(=O)c2ccc(C)cc2)CCC(C(C)(C)C)CC1` (stereo not given): the TGI with A549 NSCLC turned out to be 38.6 µM; with U251 CNS it was 25.9 µM; with K-562 leukemia it was 34.2 µM; in the experiment on SF-268 CNS it was 40 µM; in the experiment with HL-60(TB) leukemia, 23.2 µM; in the experiment with OVCAR-5 ovarian, 43.8 µM. The TGI was greater than 100 µM with SF-539 CNS, 65.2 µM in the experiment with SK-OV-3 ovarian, 21.9 µM with OVCAR-3 ovarian and 33.3 µM in the experiment with SK-MEL-5 melanoma.
Take `CCOC(=O)Nc1nc2ccccc2[nH]1`: the GI50 was 7.08 µM and 9.89 µM in the experiment with A549 NSCLC; 5.2 µM and 4.48 µM in the experiment on U251 CNS; 3.48 µM and 1.85 µM in the experiment on K-562 leukemia; greater than 100 µM in the experiment with SF-268 CNS; 2.64 µM and 2.02 µM with HL-60(TB) leukemia; 15.8 µM and > 26.1 µM with OVCAR-5 ovarian. The GI50 with SF-539 CNS is 2.63 µM and 2.92 µM; in the experiment on SK-OV-3 ovarian, 4.69 µM and 4.19 µM; with OVCAR-3 ovarian, 4.09 µM and 2.19 µM; with SK-MEL-5 melanoma, 3.5 µM and 2.55 µM. For the same compound, the TGI in the experiment with A549 NSCLC was greater than 100 µM; in the experiment with U251 CNS it was greater than 100 µM; with K-562 leukemia, greater than 100 µM; in the experiment on SF-268 CNS, greater than 100 µM; in the experiment with HL-60(TB) leukemia, 6.64 µM and > 20.1 µM; in the experiment on OVCAR-5 ovarian, greater than 100 µM. Also, the TGI is 9.69 µM and > 32.1 µM in the experiment with SF-539 CNS; greater than 100 µM in the experiment on SK-OV-3 ovarian; 20.4 µM and 5.61 µM with OVCAR-3 ovarian; greater than 100 µM in the experiment on SK-MEL-5 melanoma.
Regarding `C=CC(COC(=O)C(C)(C)OC(C)=O)c1ccc(OC(=O)C(C)C)c(OC)c1` (stereo not given), the TGI with A549 NSCLC was 47.5 µM; in the experiment on U251 CNS it was 25.8 µM; in the experiment on K-562 leukemia, greater than 63.5 µM; in the experiment on SF-268 CNS, greater than 43.9 µM; in the experiment with HL-60(TB) leukemia, greater than 49 µM; in the experiment with OVCAR-5 ovarian, 32.5 µM. In addition, the TGI in the experiment with SF-539 CNS amounted to 27.5 µM; with SK-OV-3 ovarian it was 30.8 µM; in the experiment with OVCAR-3 ovarian it was 28.9 µM; in the experiment with SK-MEL-5 melanoma, 27.8 µM.
With `CC(C)c1ccc(C2NC(=S)NC3=C2c2ccccc2C3=O)cc1` (stereo not given), the TGI in the experiment with A549 NSCLC is greater than 62.4 µM; in the experiment on U251 CNS, greater than 58.7 µM; with K-562 leukemia, greater than 60 µM; in the experiment on SF-268 CNS it was greater than 52.4 µM; with HL-60(TB) leukemia it was 32.5 µM; in the experiment with OVCAR-5 ovarian it was greater than 64.2 µM. Further, the TGI was 37.8 µM in the experiment with SF-539 CNS, greater than 61.7 µM with SK-OV-3 ovarian, greater than 56.7 µM with OVCAR-3 ovarian and 52.8 µM in the experiment with SK-MEL-5 melanoma.
Turning to `Cc1ccc(Nc2cc(Cl)c([N+](=O)[O-])cc2[N+](=O)[O-])cc1`, the GI50 is 7.76 µM with A549 NSCLC; 3.36 µM in the experiment on U251 CNS; 0.614 µM in the experiment with K-562 leukemia; 3.63 µM with SF-268 CNS; 3.62 µM in the experiment on HL-60(TB) leukemia; 6.62 µM with OVCAR-5 ovarian. The GI50 in the experiment on SF-539 CNS was 4 µM; in the experiment with SK-OV-3 ovarian it was 4.55 µM; with OVCAR-3 ovarian, 3.33 µM; in the experiment with SK-MEL-5 melanoma, 3.19 µM. Also, the TGI in the experiment on A549 NSCLC was 22.1 µM; in the experiment with U251 CNS, 12.4 µM; in the experiment with K-562 leukemia it was greater than 100 µM; in the experiment on SF-268 CNS it was 10.3 µM; in the experiment with HL-60(TB) leukemia, 14.6 µM; in the experiment with OVCAR-5 ovarian, 20.9 µM. In addition, the TGI with SF-539 CNS was 15.3 µM; with SK-OV-3 ovarian it was 13.1 µM; in the experiment on OVCAR-3 ovarian, 7.85 µM; in the experiment on SK-MEL-5 melanoma, 9.51 µM.
As to `Cc1cc(-c2nnc(/C=C/c3ccc4c(c3)OCO4)o2)n[nH]1`, the GI50 in the experiment on A549 NSCLC was 21.4 µM; in the experiment on U251 CNS, 13.6 µM; in the experiment with K-562 leukemia, 1.83 µM; in the experiment on SF-268 CNS, 6.5 µM; in the experiment with HL-60(TB) leukemia it was 1.34 µM; in the experiment with OVCAR-5 ovarian, 38.5 µM. In addition, the GI50 in the experiment with SF-539 CNS is 12.5 µM; in the experiment with SK-OV-3 ovarian it was 21.1 µM; in the experiment with OVCAR-3 ovarian it was 4.6 µM; in the experiment with SK-MEL-5 melanoma it was 13 µM. For the same compound, the TGI in the experiment with A549 NSCLC was greater than 50 µM; in the experiment on U251 CNS it was greater than 50 µM; with K-562 leukemia, greater than 50 µM; in the experiment with SF-268 CNS it was greater than 50 µM; in the experiment with HL-60(TB) leukemia, 3.99 µM; in the experiment on OVCAR-5 ovarian, greater than 50 µM. Besides, the TGI in the experiment with SF-539 CNS was greater than 50 µM; in the experiment with SK-OV-3 ovarian it was greater than 50 µM; in the experiment with OVCAR-3 ovarian it was 20.7 µM; in the experiment with SK-MEL-5 melanoma, 39 µM.
`Cn1c(=O)nc2n(-c3ccc(Cl)cc3)c(-c3ccccc3)c(-c3ccccc3)nc-2c1=O`: the TGI was greater than 100 µM in the experiment on A549 NSCLC; greater than 100 µM in the experiment with U251 CNS; greater than 100 µM in the experiment with K-562 leukemia; greater than 100 µM in the experiment on SF-268 CNS; 58.6 µM in the experiment on HL-60(TB) leukemia; greater than 100 µM in the experiment on OVCAR-5 ovarian. The TGI with SF-539 CNS was 71.5 µM; with SK-OV-3 ovarian, greater than 100 µM; with OVCAR-3 ovarian it was 82.1 µM; with SK-MEL-5 melanoma it was 53.5 µM.
As for `CS(=O)(=O)Nc1cc(-c2ccc3ncnc(Nc4ccc(F)c(Cl)c4)c3c2)cnc1Cl`, the GI50 in the experiment on A549 NSCLC is 1.14 µM and 1.26 µM; in the experiment on U251 CNS, 0.511 µM and 0.856 µM; with K-562 leukemia, 1.71 µM; in the experiment with SF-268 CNS, 0.51 µM and 0.675 µM; in the experiment with HL-60(TB) leukemia it was 0.514 µM and 0.302 µM; in the experiment with OVCAR-5 ovarian, 0.214 µM and 0.533 µM. The GI50 in the experiment on SF-539 CNS is 0.431 µM and 0.541 µM; in the experiment on SK-OV-3 ovarian it was 0.255 µM and 0.317 µM; in the experiment with OVCAR-3 ovarian it was 0.36 µM and 0.616 µM; in the experiment with SK-MEL-5 melanoma it was 0.41 µM. Besides, the TGI with A549 NSCLC is 4.67 µM and 5.81 µM; in the experiment with U251 CNS it was 2.57 µM and 9.19 µM; in the experiment on K-562 leukemia, greater than 82.4 µM; in the experiment on SF-268 CNS it was 8.05 µM and 20.1 µM; in the experiment with HL-60(TB) leukemia, 14.7 µM and 3.35 µM; in the experiment with OVCAR-5 ovarian, 4.93 µM and 8.78 µM. In addition, the TGI in the experiment with SF-539 CNS was 2.52 µM and 3.33 µM; in the experiment with SK-OV-3 ovarian, 1.34 µM and 2.71 µM; with OVCAR-3 ovarian, 1.92 µM and 5.33 µM; in the experiment on SK-MEL-5 melanoma it was 1.69 µM.
On to `Cc1cccc(C)c1NC(=O)CCC/C(CC(=O)c1ccc(F)cc1)=N\NC(=O)C(=O)NN`, for which the TGI in the experiment on A549 NSCLC, with U251 CNS, in the experiment on K-562 leukemia, in the experiment with SF-268 CNS, in the experiment with HL-60(TB) leukemia and in the experiment on OVCAR-5 ovarian was greater than 100 µM throughout. Further, the TGI in the experiment on SF-539 CNS, in the experiment with SK-OV-3 ovarian, in the experiment with OVCAR-3 ovarian and with SK-MEL-5 melanoma was greater than 100 µM each time.
For the compound `O=c1c2cc(Br)cc(Br)c2nc(CCCl)n1-c1ccc(O)c([N+](=O)[O-])c1`, the TGI stood at 31.7 µM in the experiment on A549 NSCLC; 32.9 µM with U251 CNS; 61.9 µM with K-562 leukemia; 37.9 µM in the experiment on SF-268 CNS; 42.9 µM in the experiment with HL-60(TB) leukemia; 33.1 µM in the experiment with OVCAR-5 ovarian. The TGI in the experiment on SF-539 CNS worked out at 37.1 µM; with SK-OV-3 ovarian, 29.5 µM; with OVCAR-3 ovarian, 33.7 µM; with SK-MEL-5 melanoma it was 35.6 µM.
Consider `C=C1C(=O)OC2C1C(OC(=O)/C(C)=C/C)CC(O)(CCl)C1C(O)C=C(C)C21O` (stereo not given), for which the TGI in the experiment with A549 NSCLC was greater than 63.7 µM; in the experiment on U251 CNS it was 65.1 µM; with K-562 leukemia, greater than 100 µM; in the experiment on SF-268 CNS it was greater than 69.5 µM; in the experiment on HL-60(TB) leukemia, 18 µM; in the experiment with OVCAR-5 ovarian, 32.4 µM. Also, the TGI with SF-539 CNS is 65.5 µM; in the experiment with SK-OV-3 ovarian, greater than 100 µM; in the experiment with OVCAR-3 ovarian, 27.7 µM; in the experiment with SK-MEL-5 melanoma, 27.7 µM.
Consider `O=C1CC[C@H](N2Cc3c(OCc4ccc(CN5CCOCC5)cc4)cccc3C2=O)C(=O)N1`, for which the GI50 in the experiment on A549 NSCLC was greater than 100 µM; in the experiment with U251 CNS, greater than 100 µM; in the experiment with K-562 leukemia, greater than 100 µM; in the experiment with SF-268 CNS, greater than 100 µM; in the experiment with HL-60(TB) leukemia it was 77.6 µM; in the experiment with OVCAR-5 ovarian, greater than 100 µM. Also, the GI50 in the experiment on SF-539 CNS, with SK-OV-3 ovarian, in the experiment with OVCAR-3 ovarian and with SK-MEL-5 melanoma was greater than 100 µM in each case. In addition, the TGI with A549 NSCLC, in the experiment on U251 CNS, with K-562 leukemia, in the experiment on SF-268 CNS, in the experiment on HL-60(TB) leukemia and in the experiment on OVCAR-5 ovarian was greater than 100 µM throughout. The TGI with SF-539 CNS, in the experiment on SK-OV-3 ovarian, with OVCAR-3 ovarian and in the experiment with SK-MEL-5 melanoma was greater than 100 µM throughout.
Regarding `Cc1cc(C(=O)Nc2n[nH]c3ccccc23)n[nH]1`, the GI50 was greater than 100 µM in the experiment on A549 NSCLC; greater than 100 µM in the experiment with U251 CNS; greater than 100 µM with K-562 leukemia; greater than 100 µM in the experiment with SF-268 CNS; 75.2 µM in the experiment with HL-60(TB) leukemia; 67.9 µM in the experiment with OVCAR-5 ovarian. Further, the GI50 in the experiment on SF-539 CNS, in the experiment on SK-OV-3 ovarian, in the experiment with OVCAR-3 ovarian and in the experiment with SK-MEL-5 melanoma was greater than 100 µM in each case. Moreover, the TGI in the experiment on A549 NSCLC, in the experiment on U251 CNS, in the experiment on K-562 leukemia, in the experiment with SF-268 CNS, with HL-60(TB) leukemia and in the experiment with OVCAR-5 ovarian was greater than 100 µM throughout. The TGI in the experiment on SF-539 CNS, with SK-OV-3 ovarian, in the experiment with OVCAR-3 ovarian and in the experiment on SK-MEL-5 melanoma was greater than 100 µM throughout.
As to `C1OC1CN1CCN(CC2CO2)CC1` (stereo not given), the TGI with A549 NSCLC is greater than 100 µM; in the experiment on U251 CNS, greater than 100 µM; in the experiment with K-562 leukemia, greater than 100 µM; in the experiment with SF-268 CNS it was greater than 100 µM; with HL-60(TB) leukemia, greater than 88.7 µM; with OVCAR-5 ovarian, greater than 100 µM. Also, the TGI in the experiment on SF-539 CNS, in the experiment with SK-OV-3 ovarian, with OVCAR-3 ovarian and with SK-MEL-5 melanoma was greater than 100 µM in each case.
